Assay results as given in PubChem BioAssay AID330 (DTP/NCI, 2004).
“And” between values parts separate entries of the source, which are not always exact repeats. Equal entries are not always repeated. Inconclusive results and toxic doses are left out.

Test system: P388 leukemia ip, CD2F1 mice, survival T/C
Experiment: NCI In Vivo Anticancer Drug Screen. Data for tumor model P388 Leukemia (intraperitoneal) in CD2F1 (CDF1) mice
Conditions: endpoint: median survival time, higher = longer survival
Outline: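 Mice carrying the transplanted tumor received test compound or vehicle. Survival was recorded in each group, and the value is the treated-group measurement divided by that of the vehicle-treated control group.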

[1] = dose: 50.0 mg/kg/injection, schedule: Q01DX009 (ip), vehicle: saline
[2] = dose: 50.0 mg/kg/injection, schedule: Q01DX009 (ip), vehicle: saline with Tween-80

With O=C1C=CN(C2OC(CO)C(O)C2O)C(=O)C1 (stereo not drawn) the T/C (dose: 11.0 mg/kg/injection, schedule: Q01DX009 (ip), vehicle: saline) was 117 % of control, the T/C (dose: 16.0 mg/kg/injection, schedule: Q01DX009 (ip), vehicle: saline) was 122 % of control and the T/C (dose: 22.0 mg/kg/injection, schedule: Q01DX009 (ip), vehicle: saline) was 120 % of control and 122 % of control and 124 % of control. For the same molecule, the T/C (dose: 33.0 mg/kg/injection, schedule: Q01DX009 (ip), vehicle: saline) was 109 % of control and 119 % of control and 120 % of control and the T/C [1] was 118 % of control and 124 % of control.
In the case of CCN(CC)CCCC(C)Nc1cc(OC)c2nc(C)ccc2c1OC (stereo not drawn), the T/C (dose: 0.78 mg/kg/injection, schedule: Q01DX009 (ip), vehicle: saline) is reported as 97 % of control, the T/C (dose: 1.56 mg/kg/injection, schedule: Q01DX009 (ip), vehicle: saline) is reported as 100 % of control and the T/C (dose: 3.12 mg/kg/injection, schedule: Q01DX009 (ip), vehicle: saline) is reported as 99 % of control and 97 % of control.
With CCN(CC)CCN1C(=O)c2cccc3cc(OC)cc(c23)C1=O the T/C (dose: 25.0 mg/kg/injection, schedule: Q01DX005 (ip), vehicle: saline) was 104 % of control, the T/C (dose: 50.0 mg/kg/injection, schedule: Q01DX005 (ip), vehicle: saline) was 100 % of control and the T/C (dose: 100.0 mg/kg/injection, schedule: Q01DX005 (ip), vehicle: saline) was 107 % of control.
In the case of O=C(N/N=C/c1ccccc1F)c1ccncc1, the T/C [2] is reported as 98 % of control, the T/C (dose: 100.0 mg/kg/injection, schedule: Q01DX009 (ip), vehicle: saline with Tween-80) is reported as 97 % of control and the T/C (dose: 200.0 mg/kg/injection, schedule: Q01DX009 (ip), vehicle: saline with Tween-80) is reported as 104 % of control.
For COC(=O)/C=C/c1c[nH]c2nccnc12, the T/C (dose: 12.5 mg/kg/injection, schedule: Q01DX009 (ip), vehicle: Klucel (hydroxypropylcellulose) (HPC)) was 98 % of control, the T/C (dose: 25.0 mg/kg/injection, schedule: Q01DX009 (ip), vehicle: Klucel (hydroxypropylcellulose) (HPC)) was 100 % of control and the T/C (dose: 50.0 mg/kg/injection, schedule: Q01DX009 (ip), vehicle: Klucel (hydroxypropylcellulose) (HPC)) was 102 % of control. For the same molecule, the T/C (dose: 100.0 mg/kg/injection, schedule: Q01DX009 (ip), vehicle: Klucel (hydroxypropylcellulose) (HPC)) was 100 % of control and the T/C (dose: 200.0 mg/kg/injection, schedule: Q01DX009 (ip), vehicle: Klucel (hydroxypropylcellulose) (HPC)) was 98 % of control.
With C=CC12COC(=O)C(=C)C1C1OC(=O)C(=C)C1CC2O (stereo not drawn) the T/C (dose: 0.75 mg/kg/injection, schedule: Q01DX009 (ip), vehicle: saline) was 120 % of control, the T/C (dose: 1.5 mg/kg/injection, schedule: Q01DX009 (ip), vehicle: saline) was 123 % of control and the T/C (dose: 3.0 mg/kg/injection, schedule: Q01DX009 (ip), vehicle: saline) was 118 % of control. The T/C (dose: 6.0 mg/kg/injection, schedule: Q01DX009 (ip), vehicle: saline) was 120 % of control.
For CCN(CC)C(C)C(=O)Nc1c(C)cccc1Cl (stereo not drawn), the T/C (dose: 12.5 mg/kg/injection, schedule: Q01DX009 (ip), vehicle: saline) was 100 % of control, the T/C (dose: 25.0 mg/kg/injection, schedule: Q01DX009 (ip), vehicle: saline) was 90 % of control and the T/C [1] was 100 % of control.
For CS[C@@H]1C[C@H]2[C@@H]3CCC4=CC(=O)CC[C@]4(C)[C@H]3CC[C@]2(C)[C@H]1C(C)=O, the T/C (dose: 12.5 mg/kg/injection, schedule: Q01DX009 (ip), vehicle: saline with Tween-80) was 90 % of control, the T/C (dose: 25.0 mg/kg/injection, schedule: Q01DX009 (ip), vehicle: saline with Tween-80) was 90 % of control and the T/C [2] was 100 % of control. The T/C (dose: 100.0 mg/kg/injection, schedule: Q04DX003 (ip), vehicle: saline with Tween-80) was 100 % of control, the T/C (dose: 200.0 mg/kg/injection, schedule: Q04DX003 (ip), vehicle: saline with Tween-80) was 90 % of control and the T/C (dose: 400.0 mg/kg/injection, schedule: Q04DX003 (ip), vehicle: saline with Tween-80) was 100 % of control.
CCCCc1ccc(-n2c(C)nc3[nH]cc(C)c3c2=N)cc1 was tested, and the T/C (dose: 50.0 mg/kg/injection, schedule: Q01DX005 (ip), vehicle: Klucel (hydroxypropylcellulose) (HPC)) was 96 % of control, the T/C (dose: 100.0 mg/kg/injection, schedule: Q01DX005 (ip), vehicle: Klucel (hydroxypropylcellulose) (HPC)) was 102 % of control and the T/C (dose: 200.0 mg/kg/injection, schedule: Q01DX005 (ip), vehicle: Klucel (hydroxypropylcellulose) (HPC)) was 97 % of control.
O=C1c2ccccc2C(=O)c2c(NCCSCCO)ccc(NCCSCCO)c21 was tested, and the T/C (dose: 16.0 mg/kg/injection, schedule: Q01DX009 (ip), vehicle: Klucel (hydroxypropylcellulose) (HPC)) was 92 % of control, the T/C (dose: 32.0 mg/kg/injection, schedule: Q01DX009 (ip), vehicle: Klucel (hydroxypropylcellulose) (HPC)) was 96 % of control and the T/C (dose: 64.0 mg/kg/injection, schedule: Q01DX009 (ip), vehicle: Klucel (hydroxypropylcellulose) (HPC)) was 89 % of control. The T/C (dose: 128.0 mg/kg/injection, schedule: Q01DX009 (ip), vehicle: Klucel (hydroxypropylcellulose) (HPC)) was 86 % of control.
With COc1cc(NS(C)(=O)=O)ccc1Nc1c2ccc(N(C)C)cc2nc2cc(N(C)C)ccc12 the T/C (dose: 7.5 mg/kg/injection, schedule: Q01DX005 (ip), vehicle: Klucel (hydroxypropylcellulose) (HPC)) was 162 % of control, the T/C (dose: 15.0 mg/kg/injection, schedule: Q01DX005 (ip), vehicle: Klucel (hydroxypropylcellulose) (HPC)) was 168 % of control and 173 % of control and the T/C (dose: 30.0 mg/kg/injection, schedule: Q01DX005 (ip), vehicle: Klucel (hydroxypropylcellulose) (HPC)) was 174 % of control and 182 % of control. For the same molecule, the T/C (dose: 60.0 mg/kg/injection, schedule: Q01DX005 (ip), vehicle: Klucel (hydroxypropylcellulose) (HPC)) was 98 % of control and 86 % of control.
